Assays:
[1] = tested on: eIF2α in HEK293-EGFP-eIF2α cells; experiment: PERK Cellular Assay (HEK293-EGFP-eIF2α cells, tunicamycin-induced ER stress, TR-FRET); type: cell-based; details: tunicamycin 2 hours
Summary of the method: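 Cells pre-incubated with inhibitor 30 min at 37 °C, then ER stress induced with […] tunicamycin for 2 h. TR-FRET read on lysates; ratio normalized to DMSO control as percent inhibition over a 10-point, 3-fold dilution series; IC50 from 4-parameter logistic fit.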

[2] = target: Recombinant human EIF2AK3 (PERK) catalytic domain (amino acids 536-1116) (Homo sapiens (Human), UniProt Q9NZJ5); experiment: PERK In Vitro Activity Assay (isolated), TR-FRET kinase assay; details: isolated PERK enzyme, 1.5 μM ATP, read-out: Biochemical IC50
Sequence of Recombinant human EIF2AK3 (PERK) catalytic domain (amino acids 536-1116) (Q9NZJ5 536-1116): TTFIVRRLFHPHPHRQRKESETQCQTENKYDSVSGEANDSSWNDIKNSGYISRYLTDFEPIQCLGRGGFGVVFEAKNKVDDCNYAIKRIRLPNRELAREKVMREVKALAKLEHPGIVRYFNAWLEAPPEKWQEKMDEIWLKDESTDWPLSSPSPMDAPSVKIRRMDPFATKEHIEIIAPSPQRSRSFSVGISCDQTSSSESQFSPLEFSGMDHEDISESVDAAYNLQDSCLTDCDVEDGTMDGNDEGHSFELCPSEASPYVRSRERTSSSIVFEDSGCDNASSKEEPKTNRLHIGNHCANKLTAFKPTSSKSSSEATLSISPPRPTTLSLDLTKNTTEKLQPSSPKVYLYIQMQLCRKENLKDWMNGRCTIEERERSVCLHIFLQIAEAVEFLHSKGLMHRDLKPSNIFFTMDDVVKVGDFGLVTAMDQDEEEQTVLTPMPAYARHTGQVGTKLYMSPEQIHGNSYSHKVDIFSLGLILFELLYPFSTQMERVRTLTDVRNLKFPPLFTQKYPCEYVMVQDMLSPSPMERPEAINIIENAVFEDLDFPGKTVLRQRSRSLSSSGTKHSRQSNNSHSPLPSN
Summary of the method: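 Recombinant PERK catalytic domain was incubated with 100–200 nM GFP-eIF2a substrate in 50 mM HEPES pH 7.5, 10 mM MgCl2, 1.0 mM EGTA and 0.01% Brij-35 for 45 min at room temperature. After a 10 mM EDTA stop, 2 nM Tb-anti-phospho-eIF2a was added for 90 min, and IC50 was fitted from TR-FRET ratios by 4-parameter logistic regression.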

Structure (SMILES)	IC50 [1]	IC50 [2]	IC50 ([1]; 2 h)
[2H]C([2H])([2H])c1nc(-c2ccc(NC(=O)C(O)c3cc(F)cc(F)c3)c(F)c2F)c2c(N)ncc(C(F)(F)F)n12 (centres unmarked) [Example 159, N-[4-[8-amino-3-(trideuteriomethyl)-5-(trifluoromethyl)imidazo[1,5-a]pyrazin-1-yl]-2,3-difluoro-phenyl]-2-(3,5-difluorophenyl)-2-hydroxy-acetamide]	251 to 500 nM	51 to 100 nM	–
[2H]C([2H])([2H])c1nc(-c2ccc(NC(=O)C(O)c3cccc(F)c3)c(F)c2)c2c(N)ncc(C)n12 (centres unmarked) [Example 123, N-[4-[8-amino-5-methyl-3-(trideuteriomethyl)imidazo[1,5-a]pyrazin-1-yl]-2-fluoro-phenyl]-2-(3-fluorophenyl)-2-hydroxy-acetamide]	1 to 25 nM	1 to 25 nM	–
[2H]C([2H])([2H])c1nc(-c2ccc(NC(=O)C(O)c3cccc(C(F)(F)F)c3)nc2C)c2c(N)nc(C)cn12 (centres unmarked) [Example 177, N-[5-[8-amino-6-methyl-3-(trideuteriomethyl)imidazo[1,5-a]pyrazin-1-yl]-6-methyl-2-pyridyl]-2-hydroxy-2-[3-(trifluoromethyl)phenyl]acetamide]	501 to 1000 nM	101 to 250 nM	–
[2H]C([2H])([2H])c1nc(-c2cnc(NC(=O)C(O)c3cccc(F)c3)cc2C)c2c(N)nc(C)cn12 (centres unmarked) [Example 178, N-[5-[8-amino-6-methyl-3-(trideuteriomethyl)imidazo[1,5-a]pyrazin-1-yl]-4-methyl-2-pyridyl]-2-(3-fluorophenyl)-2-hydroxy-acetamide]	4000 to 5000 nM	251 to 500 nM	–
[2H]C([2H])([2H])c1nc(-c2ccc(NC(=O)C(O)c3cc(F)cc(F)c3)cc2C)c2c(N)nc(C)cn12 (centres unmarked) [Example 45, N-[4-[8-amino-6-methyl-3-(trideuteriomethyl)imidazo[1,5-a]pyrazin-1-yl]-3-methyl-phenyl]-2-(3,5-difluoro-phenyl)-2-hydroxy-acetamide]	1000 to 2000 nM	51 to 100 nM	–
[2H]C([2H])([2H])c1nc(-c2ccc(NC(=O)C(O)c3cccc(F)c3)cc2C)c2c(N)ncc(C)n12 (centres unmarked) [Example 10, N-(4-(8-amino-5-methyl-3-(trideuteriomethyl)imidazo[1,5-a]pyrazin-1-yl)-3-methylphenyl)-2-(3-fluorophenyl)-2-hydroxyacetamide]	–	1 to 25 nM	1 to 25 nM
[2H]C([2H])([2H])c1nc(-c2ccc(NC(=O)C(O)c3cccc(F)c3)nc2C)c2c(N)ncc(C)n12 (centres unmarked) [Example 173, N-[5-[8-amino-5-methyl-3-(trideuteriomethyl)imidazo[1,5-a]pyrazin-1-yl]-6-methyl-2-pyridyl]-2-(3-fluorophenyl)-2-hydroxy-acetamide]	26 to 50 nM	1 to 25 nM	–
[2H]C([2H])([2H])c1nc(-c2ccc(NC(=O)C(O)c3cccc(Cl)c3)cc2F)c2c(N)ncc(C)n12 (centres unmarked) [Example 84, N-[4-[8-amino-5-methyl-3-(trideuteriomethyl)imidazo[1,5-a]pyrazin-1-yl]-3-fluoro-phenyl]-2-(3-chlorophenyl)-2-hydroxy-acetamide]	1 to 25 nM	1 to 25 nM	–
Cc1cnc(N)c2c(-c3ccc(NC(=O)C(O)c4cccc(C(F)(F)F)c4)cc3F)nc(C)n12 (centres unmarked) [Example 92, N-(4-(8-amino-3,5-dimethylimidazo [1,5-a]pyrazin-1-yl)-3-fluoro-phenyl)-2-hydroxy-2-(3-(trifluoromethyl)phenyl)acetamide]	1 to 25 nM	1 to 25 nM	–
Cc1cc(NC(=O)C(O)c2cccc(F)c2)c(F)cc1-c1nc(C)n2c(C)cnc(N)c12 (centres unmarked) [Example 64, N-(4-(8-amino-3,5-dimethylimidazo [1,5-a]pyrazin-1-yl)-2-fluoro-5-methylphenyl)-2-(3-fluorophenyl)-2-hydroxy-acetamide]	501 to 1000 nM	51 to 100 nM	–
Cc1cnc(N)c2c(-c3ccc(NC(=O)C(O)c4cccc(F)c4)cc3)nc(C)n12 (centres unmarked) [Example 69, N-(4-(8-amino-3,5-dimethylimidazo [1,5-a]pyrazin-1-yl)phenyl)-2-(3-fluorophenyl)-2-hydroxyacetamide]	1 to 25 nM	1 to 25 nM	–
Cc1cc(F)cc(C(O)C(=O)Nc2ccc(-c3nc(C)n4c(C)cnc(N)c34)c(C)c2)c1 (centres unmarked) [Example 62, N-(4-(8-amino-3,5-dimethylimidazo [1,5-a]pyrazin-1-yl)-3-methyl-phenyl)-2-(3-fluoro-5-methylphenyl)-2-hydroxyacetamide]	1 to 25 nM	1 to 25 nM	–
Cc1cnc(N)c2c(-c3ccc(NC(=O)C(O)c4cccc(C(F)(F)F)c4)cc3F)nc(C)n12 (centres unmarked) [Example 93, N-(4-(8-amino-3,5-dimethylimidazo [1,5-a]pyrazin-1-yl)-3-fluoro-phenyl)-2-hydroxy-2-(3-(trifluoromethyl)phenyl)acetamide]	51 to 100 nM	1 to 25 nM	–
[2H]C([2H])([2H])c1nc(-c2ccc(NC(=O)C(O)c3cc(F)cc(F)c3)cc2F)c2c(N)nc(C)cn12 (centres unmarked) [Example 103, N-[4-[8-amino-6-methyl-3-(trideuteriomethyl)imidazo[1,5-a]pyrazin-1-yl]-3-fluoro-phenyl]-2-(3,5-difluoro-phenyl)-2-hydroxy-acetamide]	251 to 500 nM	1 to 25 nM	–
[2H]C([2H])([2H])c1nc(-c2ccc(NC(=O)C(O)c3cccc(C(F)(F)F)c3)cc2C)c2c(N)nc(C)cn12 (centres unmarked) [Example 15, N-[4-[8-amino-6-methyl-3-(trideuteriomethyl)imidazo[1,5-a]pyrazin-1-yl]-3-methyl-phenyl]-2-hydroxy-2-[3-(trifluoromethyl)phenyl]acetamide]	251 to 500 nM	101 to 250 nM	–
[2H]C([2H])([2H])c1nc(-c2cnc(NC(=O)C(O)c3cccc(F)c3)cc2C)c2c(N)ncc(C)n12 (centres unmarked) [Example 181, N-[5-[8-amino-5-methyl-3-(trideuteriomethyl)imidazo[1,5-a]pyrazin-1-yl]-4-methyl-2-pyridyl]-2-(3-fluorophenyl)-2-hydroxy-acetamide]	26 to 50 nM	1 to 25 nM	–
[2H]C([2H])([2H])c1nc(-c2ccc(NC(=O)C(O)c3cccc(F)c3)c(F)c2)c2c(N)ncc(C)n12 (centres unmarked) [Example 122, N-[4-[8-amino-5-methyl-3-(trideuteriomethyl)imidazo[1,5-a]pyrazin-1-yl]-2-fluoro-phenyl]-2-(3-fluorophenyl)-2-hydroxy-acetamide]	251 to 500 nM	26 to 50 nM	–
[2H]C([2H])([2H])c1nc(-c2ccc(NC(=O)C(O)c3cccc(Cl)c3)c(F)c2F)c2c(N)ncc(C(F)(F)F)n12 (centres unmarked) [Example 142, N-[4-[8-amino-3-(trideuteriomethyl)-5-(trifluoromethyl)imidazo[1,5-a]pyrazin-1-yl]-2,3-difluoro-phenyl]-2-(3-chlorophenyl)-2-hydroxy-acetamide]	1 to 25 nM	1 to 25 nM	–
[2H]C([2H])([2H])c1nc(-c2ccc(NC(=O)C(O)c3cc(F)cc(F)c3)c(F)c2F)c2c(N)ncc(C)n12 (centres unmarked) [Example 154, N-[4-[8-amino-5-methyl-3-(trideuteriomethyl)imidazo[1,5-a]pyrazin-1-yl]-2,3-difluoro-phenyl]-2-(3,5-difluorophenyl)-2-hydroxy-acetamide]	1 to 25 nM	1 to 25 nM	–
[2H]C([2H])([2H])c1nc(-c2ccc(NC(=O)C(O)c3cccc(F)c3)c(F)c2F)c2c(N)nc(C)cn12 (centres unmarked) [Example 131, N-[4-[8-amino-6-methyl-3-(trideuteriomethyl)imidazo[1,5-a]pyrazin-1-yl]-2,3-difluoro-phenyl]-2-(3-fluoro-phenyl)-2-hydroxy-acetamide]	3000 to 4000 nM	501 to 1000 nM	–
Cc1cn2c(C)nc(-c3ccc(NC(=O)C(O)c4cccc(F)c4)cc3C)c2c(N)n1 (single isomer, unassigned) [Example 3, N-(4-(8-amino-3,6-dimethylimidazo[1,5-a]pyrazin-1-yl)-3-methylphenyl)-2-(3-fluorophenyl)-2-hydroxyacetamide]	26 to 50 nM	1 to 25 nM	–
[2H]C([2H])([2H])c1nc(-c2ccc(NC(=O)C(O)c3cc(F)cc(F)c3)c(F)c2F)c2c(N)ncc(Cl)n12 (centres unmarked) [Example 156, N-[4-[8-amino-5-chloro-3-(trideuteriomethyl)imidazo[1,5-a]pyrazin-1-yl]-2,3-difluoro-phenyl]-2-(3,5-difluorophenyl)-2-hydroxy-acetamide]	1 to 25 nM	1 to 25 nM	–
[2H]C([2H])([2H])c1nc(-c2ccc(NC(=O)C(O)c3cc(F)cc(C(F)(F)F)c3)cc2C)c2c(N)ncc(Cl)n12 (centres unmarked) [Example 56, N-[4-[8-amino-5-chloro-3-(trideuteriomethyl)imidazo[1,5-a]pyrazin-1-yl]-3-methyl-phenyl]-2-[3-fluoro-5-(trifluoromethyl)phenyl]-2-hydroxy-acetamide]	1 to 25 nM	1 to 25 nM	–
Cc1cnc(N)c2c(-c3ccc(NC(=O)C(O)c4cccc(Cl)c4)cc3F)nc(C)n12 (centres unmarked) [Example 78, N-(4-(8-amino-3,5-dimethylimidazo [1,5-a]pyrazin-1-yl)-3-fluorophenyl)-2-(3-chlorophenyl)-2-hydroxy-acetamide]	–	1 to 25 nM	1 to 25 nM
[2H]C([2H])([2H])c1nc(-c2ccc(NC(=O)C(O)c3cccc(Cl)c3)c(F)c2F)c2c(N)nc(C)cn12 (centres unmarked) [Example 140, N-[4-[8-amino-6-methyl-3-(trideuteriomethyl)imidazo[1,5-a]pyrazin-1-yl]-2,3-difluoro-phenyl]-2-(3-chlorophenyl)-2-hydroxy-acetamide]	1 to 25 nM	1 to 25 nM	–
